Here are results for 19 molecules from patent US10059701B2 (Merck Patent GmbH, priority 2015, dated 2018).

Some results are limits rather than exact numbers.

In assay [1] the target is T1, IRAK4 (Homo sapiens, UniProt Q9NWZ3).
T1 construct: His-TEV-IRAK4 (1-460); His (N); TEV cleavage site (N)
T1 sequence (Q9NWZ3 1-460): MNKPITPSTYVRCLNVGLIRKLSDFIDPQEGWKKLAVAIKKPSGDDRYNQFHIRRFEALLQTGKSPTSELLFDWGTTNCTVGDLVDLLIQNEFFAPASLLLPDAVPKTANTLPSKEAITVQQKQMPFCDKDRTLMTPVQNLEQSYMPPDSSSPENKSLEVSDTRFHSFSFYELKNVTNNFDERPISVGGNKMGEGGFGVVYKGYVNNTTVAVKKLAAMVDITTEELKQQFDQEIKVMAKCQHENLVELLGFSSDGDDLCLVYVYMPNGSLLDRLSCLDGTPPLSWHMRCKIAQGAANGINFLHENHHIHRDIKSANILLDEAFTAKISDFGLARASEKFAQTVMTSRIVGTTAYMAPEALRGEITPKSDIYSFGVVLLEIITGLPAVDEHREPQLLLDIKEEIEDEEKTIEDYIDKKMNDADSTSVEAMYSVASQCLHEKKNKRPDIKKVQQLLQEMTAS
Nature of the assay: IRAK4 enzymatic assay (ADP-Glo luminescence). The format is biochemical. Conditions: purified human recombinant His-TEV-IRAK4 (1-460), ATP 2 μM. How it is done: IRAK4 is a human purified recombinant enzyme (His-TEV-IRAK4 (1-460)).
In this assay, IRAK4 hydrolyses ATP, autophosphorylates and phosphorylates a Serine/Threonine generic peptidic substrate (STK: 61ST1BLC from CisBio International). Measurement of IRAK-4 inhibition is performed in 384-well format based on a luminescence assay (ADP-Glo™ Kinase Assay from Promega). Purified human recombinant IRAK4 (0.3 μg/ml) and serial diluted compounds in DMSO (range of concentration from 10 μM to 0.5 nM) or controls (1% DMSO) are incubated for 15 minutes at RT in assay buffer containing 50 mM Hepes pH 7.0, Fatty acid-free BSA 0.1%, Dithiothreitol (DTT) 2 mM, MgCl2 10 mM, EGTA 0.5 mM, Triton X-100 0.01%, MnCl2 5 mM. The kinase reaction is then initiated by the addition of ATP (2 μM) and the peptidic substrate STK1-biotin peptide (300 nM). After 2 hours of incubation at RT, the reaction is stopped and the unconsumed ATP depleted by the addition of ADP-Glo™ Reagent according to supplier instructions. After 40 minutes of incubation at RT, the Kinase Detection Reagent is then added to the assay plate according to supplier instructions. After 20 minutes of incubation at RT, the luminescence signal is measured with a plate-reading luminometer (PerkinElmer Envision or equivalent reader).
A general note: ADP-Glo first removes unused ATP, then detects ADP through luciferase.

Assay [2] addresses T2, IRAK1 (Homo sapiens, UniProt P51617).
T2 construct: His-TEV-IRAK1 (194-712); His (N); TEV cleavage site (N)
Nature of the assay: IRAK1 enzymatic assay (ADP-Glo luminescence). The format is biochemical. Conditions: purified human recombinant His-TEV-IRAK1 (194-712). How it is done: IRAK1 is a human purified recombinant enzyme (His-TEV-IRAK1 (194-712))
In this assay, IRAK1 hydrolyses ATP and autophosphorylates. Measurement of IRAK-1 inhibition is performed in 384-well format based on luminescence assay (ADP-Glo™ Kinase Assay from Promega). Purified human recombinant IRAK1 (0.3 μg/ml) and serial diluted compounds in DMSO (range of concentration from 10 μM to 0.5 nM) or controls (1% DMSO) are incubated for 15 minutes at RT in assay buffer containing 50 mM Hepes pH 7.0, Fatty acid-free BSA 0.1%, Dithiothreitol (DTT) 2 mM, MgCl2 10 mM, EGTA 0.5 mM, Triton X-100 0.01%. The kinase reaction is then initiated by the addition of ATP […] After 2 hours of incubation at RT, the reaction is stopped and the unconsumed ATP depleted by the addition of ADP-Glo™ Reagent according to supplier instructions. After 40 minutes of incubation at RT, the Kinase Detection Reagent is then added to the assay plate according to supplier instructions. After 20 minutes of incubation at RT, the luminescence signal is measured with a luminometer (PerkinElmer Envision or equivalent reader).

The IC50 is the point on the concentration scale where inhibition reaches its midpoint.

T2 sequence (P51617 194-712): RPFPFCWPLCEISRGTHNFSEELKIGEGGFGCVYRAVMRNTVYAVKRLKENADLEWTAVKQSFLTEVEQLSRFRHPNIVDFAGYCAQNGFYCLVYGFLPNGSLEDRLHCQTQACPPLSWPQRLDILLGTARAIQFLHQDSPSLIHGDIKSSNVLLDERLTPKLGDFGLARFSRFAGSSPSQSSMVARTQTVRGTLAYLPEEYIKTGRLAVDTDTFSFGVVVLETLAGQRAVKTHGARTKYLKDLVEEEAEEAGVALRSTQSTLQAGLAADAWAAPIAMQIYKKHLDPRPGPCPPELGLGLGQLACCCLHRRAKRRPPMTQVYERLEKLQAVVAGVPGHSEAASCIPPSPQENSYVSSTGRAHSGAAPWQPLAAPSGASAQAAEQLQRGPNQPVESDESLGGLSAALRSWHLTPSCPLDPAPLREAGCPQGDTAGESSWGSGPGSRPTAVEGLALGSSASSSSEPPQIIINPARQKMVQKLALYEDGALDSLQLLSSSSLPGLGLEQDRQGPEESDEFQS

Consider `O=C(/N=c1\[nH]c2cc(N3CCOCC3=O)ccc2n1[C@H]1CCCC[C@H]1CO)c1cccc(C(F)(F)F)c1` (racemic) [Compound 116, rac-(E)-N-(1-((1S,2R)-2-(hydroxymethyl)cyclohexyl)-5-(3-oxomorpholino)-1H-benzo[d]imidazol-2(3H)-ylidene)-3-(trifluoromethyl)benzamide], for which the IC50 is 100 to 1000 nM in assay [1] and more than 1000 nM in assay [2].

Turning to `O=C(/N=c1\[nH]c2cc(N3CCOCC3=O)ccc2n1[C@H]1CCCC[C@H]1CO)c1cccc(C(F)F)c1` (racemic) [Compound 117, rac-(E)-3-(difluoromethyl)-N-(1-((1S,2R)-2-(hydroxymethyl)cyclohexyl)-5-(3-oxomorpholino)-1H-benzo[d]imidazol-2(3H)-ylidene)benzamide], the half-inhibitory concentration (IC50) in assay [1] and in assay [2] was 100 to 1000 nM in each case.

Turning to `O=C(/N=c1\[nH]c2cc(N3CCOCC3=O)ccc2n1[C@H]1CCCC[C@@H]1CO)c1cccc(C(F)(F)F)c1` (racemic) [Compound 118, rac-(E)-N-(1-((1S,2S)-2-(hydroxymethyl)cyclohexyl)-5-(3-oxomorpholino)-1H-benzo[d]imidazol-2(3H)-ylidene)-3-(trifluoromethyl)benzamide], the concentration for half-maximal inhibition (IC50) in assay [1] is not above 100 nM; in assay [2], 100 to 1000 nM.

As to `O=C(/N=c1\[nH]c2cc(N3CCOCC3=O)ccc2n1[C@H]1CCCC[C@@H]1CO)c1cccc(C(F)F)c1` (racemic) [Compound 119, rac-(E)-3-(difluoromethyl)-N-(1-((1S,2S)-2-(hydroxymethyl)cyclohexyl)-5-(3-oxomorpholino)-1H-benzo[d]imidazol-2(3H)-ylidene)benzamide], the results for the IC50 in assay [1] and in assay [2] were not above 100 nM and 100 to 1000 nM, respectively.

Consider `CCC(CCO)n1/c(=N/C(=O)c2cccc(C(F)(F)F)c2)[nH]c2cc(N3CCOCC3=O)ccc21` (racemic) [Compound 124, rac-(E)-N-(1-(1-hydroxypentan-3-yl)-5-(3-oxomorpholino)-1H-benzo[d]imidazol-2(3H)-ylidene)-3-(trifluoromethyl)benzamide], for which the results for the concentration for half-maximal inhibition (IC50) in assay [1] and in assay [2] were 100 to 1000 nM and more than 1000 nM, respectively.

As for `CCC(CCO)n1/c(=N/C(=O)c2cccc(C(F)F)c2)[nH]c2cc(N3CCOCC3=O)ccc21` (racemic) [Compound 125, rac-(E)-3-(difluoromethyl)-N-(1-(1-hydroxypentan-3-yl)-5-(3-oxomorpholino)-1H-benzo[d]imidazol-2(3H)-ylidene)benzamide], the values for the IC50 in assay [1] and in assay [2] were not above 100 nM and more than 1000 nM, respectively.

As for `O=C(/N=c1\[nH]c2cc(N3CCCOC3=O)ccc2n1[C@@H]1C[C@H]1CO)c1cccc(C(F)(F)F)c1` (racemic) [Compound 144, rac-(E)-N-(1-((1R,2R)-2-(hydroxymethyl)cyclopropyl)-5-(2-oxo-1,3-oxazinan-3-yl)-1H-benzo[d]imidazol-2(3H)-ylidene)-3-(trifluoromethyl)benzamide], the IC50 in assay [1] was not above 100 nM; in assay [2], more than 1000 nM.

Consider `O=C(/N=c1\[nH]c2cc(N3CCCNC3=O)ccc2n1CCCO)c1cccc(C(F)(F)F)c1` [Compound 1, (E)-N-(1-(3-hydroxypropyl)-5-(2-oxotetrahydropyrimidin-1(2H)-yl)-1H-benzo[d]imidazol-2(3H)-ylidene)-3-(trifluoromethyl)benzamide], for which the values for the IC50 in assay [1] and in assay [2] were not above 100 nM and 100 to 1000 nM, respectively.

On to `O=C(/N=c1\[nH]c2cc(N3CCOCC3=O)ccc2n1CCCO)c1cccc(-n2cnnc2)c1` [Compound 2, (E)-N-(1-(3-hydroxypropyl)-5-(3-oxomorpholino)-1H-benzo[d]imidazol-2(3H)-ylidene)-3-(4H-1,2,4-triazol-4-yl)benzamide], for which the IC50 in assay [1] and in assay [2] was 100 to 1000 nM each time.

As for `N#Cc1cccc(C(=O)/N=c2\[nH]c3cc(N4CCOCC4=O)ccc3n2CCCO)c1` [Compound 3, (E)-3-cyano-N-(1-(3-hydroxypropyl)-5-(3-oxomorpholino)-1H-benzo[d]imidazol-2(3H)-ylidene)benzamide], the results for the concentration for half-maximal inhibition (IC50) in assay [1] and in assay [2] were not above 100 nM and 100 to 1000 nM, respectively.

Consider `O=C(/N=c1\[nH]c2cc(N3CCOCC3=O)ccc2n1CCCO)c1cccc(C(F)(F)F)c1F` [Compound 4, (E)-2-fluoro-N-(1-(3-hydroxypropyl)-5-(3-oxomorpholino)-1H-benzo[d]imidazol-2(3H)-ylidene)-3-(trifluoromethyl)benzamide], for which the IC50 in assay [1] is not above 100 nM; in assay [2] it was 100 to 1000 nM.

With `O=C(/N=c1\[nH]c2cc(N3CCOCC3=O)ccc2n1CCCO)c1ccc(F)c(C(F)(F)F)c1` [Compound 5, (E)-4-fluoro-N-(1-(3-hydroxypropyl)-5-(3-oxomorpholino)-1H-benzo[d]imidazol-2(3H)-ylidene)-3-(trifluoromethyl)benzamide], the half-inhibitory concentration (IC50) in assay [1] and in assay [2] was not above 100 nM in each case.

Regarding `O=C(/N=c1\[nH]c2cc(N3CCOCC3=O)ccc2n1CCCO)c1cccc(OC(F)F)c1` [Compound 6, (E)-3-(difluoromethoxy)-N-(1-(3-hydroxypropyl)-5-(3-oxomorpholino)-1H-benzo[d]imidazol-2(3H)-ylidene)benzamide], the IC50 in assay [1] is not above 100 nM; in assay [2] it was 100 to 1000 nM.

As to `O=C(/N=c1\[nH]c2cc(N3CCOCC3=O)ccc2n1CCCO)c1cccc(OC(F)(F)F)c1` [Compound 7, (E)-N-(1-(3-hydroxypropyl)-5-(3-oxomorpholino)-1H-benzo[d]imidazol-2(3H)-ylidene)-3-(trifluoromethoxy)benzamide], the IC50 in assay [1] was not above 100 nM; in assay [2], 100 to 1000 nM.

For the molecule `O=C(/N=c1\[nH]c2cc(N3CCOC3=O)ccc2n1CCCO)c1cccc(C(F)(F)F)c1` [Compound 8, (E)-N-(1-(3-hydroxypropyl)-5-(2-oxooxazolidin-3-yl)-1H-benzo[d]imidazol-2(3H)-ylidene)-3-(trifluoromethyl)benzamide], the concentration for half-maximal inhibition (IC50) in assay [1] is not above 100 nM; in assay [2], 100 to 1000 nM.

`O=C(/N=c1\[nH]c2cc(N3CCOCC3=O)ccc2n1CC1(CO)CC1)c1cccc(C(F)(F)F)c1` [Compound 9, (E)-N-(1-((1-(hydroxymethyl)cyclopropyl)methyl)-5-(3-oxomorpholino)-1H-benzo[d]imidazol-2(3H)-ylidene)-3-(trifluoromethyl)benzamide]: the half-maximal inhibitory concentration (IC50) in assay [1] was not above 100 nM; in assay [2], 100 to 1000 nM.

Regarding `C[C@H](CCO)n1/c(=N/C(=O)c2cccc(C#N)c2)[nH]c2cc(N3CCOCC3=O)ccc21` [Compound 10, (R,E)-3-cyano-N-(1-(4-hydroxybutan-2-yl)-5-(3-oxomorpholino)-1H-benzo[d]imidazol-2(3H)-ylidene)benzamide], the IC50 is not above 100 nM in assay [1] and 100 to 1000 nM in assay [2].

With `N#Cc1cccc(C(=O)/N=c2\[nH]c3cc(N4CCOC4=O)ccc3n2CCCO)c1` [Compound 11, (E)-3-cyano-N-(1-(3-hydroxypropyl)-5-(2-oxooxazolidin-3-yl)-1H-benzo[d]imidazol-2(3H)-ylidene)benzamide], the IC50 in assay [1] was not above 100 nM; in assay [2], 100 to 1000 nM.

As to `N#Cc1cccc(C(=O)/N=c2\[nH]c3cc(N4CCOCC4=O)ccc3n2CC2(CO)CC2)c1` [Compound 12, (E)-3-cyano-N-(1-((1-(hydroxymethyl)cyclopropyl)methyl)-5-(3-oxomorpholino)-1H-benzo[d]imidazol-2(3H)-ylidene)benzamide], the IC50 in assay [1] and in assay [2] was not above 100 nM in each case.
